Reference: PubChem BioAssay AID1259407 (Chemical Carcinogenesis Research Information System (CCRIS), 2018)
Activity calls are given as the source filed them. How the calls were made is not given here.

Test system: CCRIS mutagenicity, Ames/micronucleus/aberration tests
Test: CCRIS mutagenicity studies

Question: Which results are given for `C1COCCO1`?
Answer: mutagenic call (End Point: IN VITRO CHROMOSOMAL ABERRATIONS, Test System: CHINESE HAMSTER OVARY CELLS, Metabolic Activation: NONE): inactive; negative; mutagenic call (End Point: IN VITRO CHROMOSOMAL ABERRATIONS, Test System: CHINESE HAMSTER OVARY CELLS, Metabolic Activation: RAT, LIVER, S-9, AROCLOR 1254): inactive; negative; mutagenic call (End Point: IN VIVO MICRONUCLEUS, Test System: BONE MARROW ERYTHROCYTES, Species: MOUSE, Strain/Sex: CD-1/MALE, Route: ORAL (GAVAGE)): active; positive; mutagenic call (End Point: IN VIVO MICRONUCLEUS, Test System: HEPATOCYTES (BRDU-LABELING), Species: MOUSE, Strain/Sex: CD-1/MALE, Route: ORAL (GAVAGE)): active; positive; mutagenic call (Test System: AMES SALMONELLA TYPHIMURIUM, Strain/Indicator: TA98, Metabolic Activation: HAMSTER LIVER S-9, PHENOBARBITAL AND BETA-NAPHTHOFLAVONE (10%), Method: PREINCUBATION): inactive; negative; mutagenic call (Test System: AMES SALMONELLA TYPHIMURIUM, Strain/Indicator: TA98, Metabolic Activation: HAMSTER LIVER S-9, PHENOBARBITAL AND BETA-NAPHTHOFLAVONE (30%), Method: PREINCUBATION): inactive; negative; mutagenic call (Test System: AMES SALMONELLA TYPHIMURIUM, Strain/Indicator: TA98, Metabolic Activation: NONE, Method: GAS EXPOSURE): inactive; negative; mutagenic call (Test System: AMES SALMONELLA TYPHIMURIUM, Strain/Indicator: TA98, Metabolic Activation: NONE, Method: PREINCUBATION): inactive; negative; mutagenic call (Test System: AMES SALMONELLA TYPHIMURIUM, Strain/Indicator: TA98, Metabolic Activation: NONE, Method: STANDARD PLATE): inactive; negative; mutagenic call (Test System: AMES SALMONELLA TYPHIMURIUM, Strain/Indicator: TA98, Metabolic Activation: RAT LIVER S-9, PHENOBARBITAL AND 5,6-BENZOFLAVONE, Method: PREINCUBATION): inactive; negative; mutagenic call (Test System: AMES SALMONELLA TYPHIMURIUM, Strain/Indicator: TA98, Metabolic Activation: RAT LIVER S-9, PHENOBARBITAL AND 5,6-BENZOFLAVONE, Method: STANDARD PLATE): inactive; negative; mutagenic call (Test System: AMES SALMONELLA TYPHIMURIUM, Strain/Indicator: TA98, Metabolic Activation: RAT LIVER S-9, PHENOBARBITAL AND BETA-NAPHTHOFLAVONE (10%), Method: PREINCUBATION): inactive; negative; mutagenic call (Test System: AMES SALMONELLA TYPHIMURIUM, Strain/Indicator: TA98, Metabolic Activation: RAT LIVER S-9, PHENOBARBITAL AND BETA-NAPHTHOFLAVONE (30%), Method: PREINCUBATION): inactive; negative; mutagenic call (Test System: AMES SALMONELLA TYPHIMURIUM, Strain/Indicator: TA98, Metabolic Activation: RAT LIVER S-9, PHENOBARBITAL AND BETA-NAPHTHOFLAVONE, Method: GAS EXPOSURE): inactive; negative; mutagenic call (Test System: AMES SALMONELLA TYPHIMURIUM, Strain/Indicator: TA100, Metabolic Activation: HAMSTER LIVER S-9, PHENOBARBITAL AND BETA-NAPHTHOFLAVONE (10%), Method: PREINCUBATION): inactive; negative; mutagenic call (Test System: AMES SALMONELLA TYPHIMURIUM, Strain/Indicator: TA100, Metabolic Activation: HAMSTER LIVER S-9, PHENOBARBITAL AND BETA-NAPHTHOFLAVONE (30%), Method: PREINCUBATION): inactive; negative; mutagenic call (Test System: AMES SALMONELLA TYPHIMURIUM, Strain/Indicator: TA100, Metabolic Activation: NONE, Method: GAS EXPOSURE): inactive; negative; mutagenic call (Test System: AMES SALMONELLA TYPHIMURIUM, Strain/Indicator: TA100, Metabolic Activation: NONE, Method: PREINCUBATION): inactive; negative; mutagenic call (Test System: AMES SALMONELLA TYPHIMURIUM, Strain/Indicator: TA100, Metabolic Activation: NONE, Method: STANDARD PLATE): inactive; negative; mutagenic call (Test System: AMES SALMONELLA TYPHIMURIUM, Strain/Indicator: TA100, Metabolic Activation: RAT LIVER S-9, PHENOBARBITAL AND 5,6-BENZOFLAVONE, Method: PREINCUBATION): inactive; negative; mutagenic call (Test System: AMES SALMONELLA TYPHIMURIUM, Strain/Indicator: TA100, Metabolic Activation: RAT LIVER S-9, PHENOBARBITAL AND 5,6-BENZOFLAVONE, Method: STANDARD PLATE): inactive; negative; mutagenic call (Test System: AMES SALMONELLA TYPHIMURIUM, Strain/Indicator: TA100, Metabolic Activation: RAT LIVER S-9, PHENOBARBITAL AND BETA-NAPHTHOFLAVONE (10%), Method: PREINCUBATION): inactive; negative; mutagenic call (Test System: AMES SALMONELLA TYPHIMURIUM, Strain/Indicator: TA100, Metabolic Activation: RAT LIVER S-9, PHENOBARBITAL AND BETA-NAPHTHOFLAVONE (30%), Method: PREINCUBATION): inactive; negative; mutagenic call (Test System: AMES SALMONELLA TYPHIMURIUM, Strain/Indicator: TA100, Metabolic Activation: RAT LIVER S-9, PHENOBARBITAL AND BETA-NAPHTHOFLAVONE, Method: GAS EXPOSURE): inactive; negative; mutagenic call (Test System: AMES SALMONELLA TYPHIMURIUM, Strain/Indicator: TA1535, Metabolic Activation: HAMSTER LIVER S-9, PHENOBARBITAL AND BETA-NAPHTHOFLAVONE (10%), Method: PREINCUBATION): inactive; negative; mutagenic call (Test System: AMES SALMONELLA TYPHIMURIUM, Strain/Indicator: TA1535, Metabolic Activation: HAMSTER LIVER S-9, PHENOBARBITAL AND BETA-NAPHTHOFLAVONE (30%), Method: PREINCUBATION): inactive; negative; mutagenic call (Test System: AMES SALMONELLA TYPHIMURIUM, Strain/Indicator: TA1535, Metabolic Activation: NONE, Method: GAS EXPOSURE): inactive; negative; mutagenic call (Test System: AMES SALMONELLA TYPHIMURIUM, Strain/Indicator: TA1535, Metabolic Activation: NONE, Method: PREINCUBATION): inactive; negative; mutagenic call (Test System: AMES SALMONELLA TYPHIMURIUM, Strain/Indicator: TA1535, Metabolic Activation: NONE, Method: STANDARD PLATE): inactive; negative; mutagenic call (Test System: AMES SALMONELLA TYPHIMURIUM, Strain/Indicator: TA1535, Metabolic Activation: RAT LIVER S-9, PHENOBARBITAL AND 5,6-BENZOFLAVONE, Method: PREINCUBATION): inactive; negative; mutagenic call (Test System: AMES SALMONELLA TYPHIMURIUM, Strain/Indicator: TA1535, Metabolic Activation: RAT LIVER S-9, PHENOBARBITAL AND 5,6-BENZOFLAVONE, Method: STANDARD PLATE): inactive; negative; mutagenic call (Test System: AMES SALMONELLA TYPHIMURIUM, Strain/Indicator: TA1535, Metabolic Activation: RAT LIVER S-9, PHENOBARBITAL AND BETA-NAPHTHOFLAVONE (10%), Method: PREINCUBATION): inactive; negative
